Results: PubChem BioAssay (NCI)
Several values for one entry are separate records, joined by “and”; a condition that tells them apart may be missing. Equal entries are not always repeated.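 How tested: cells in 96-well plates exposed to compound for 48 hours at five concentrations. GI50 marks 50% less growth. Definition used: TGI = concentration required for complete inhibition of growth.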

What was measured:
Experiment in all cases: DTP human tumour cell line panel, 48 h
SF-268 CNS = system: SF-268 CNS
K-562 leukemia = system: K-562 leukemia
NCI/ADR-RES ovarian = system: NCI/ADR-RES ovarian
MDA-MB-231 breast = system: MDA-MB-231 breast
UACC-257 melanoma = system: UACC-257 melanoma
SN12C renal = system: SN12C renal
M14 melanoma = system: M14 melanoma
HS 578T breast = system: HS 578T breast
PC-3 prostate = system: PC-3 prostate
NCI-H522 lung = system: NCI-H522 lung

Row | Structure (SMILES) | TGI (SF-268 CNS) | TGI (K-562 leukemia) | TGI (NCI/ADR-RES ovarian) | TGI (MDA-MB-231 breast) | TGI (UACC-257 melanoma) | TGI (SN12C renal) | TGI (M14 melanoma) | TGI (HS 578T breast) | TGI (PC-3 prostate) | TGI (NCI-H522 lung) | GI50 (SF-268 CNS) | GI50 (K-562 leukemia) | GI50 (NCI/ADR-RES ovarian) | GI50 (MDA-MB-231 breast) | GI50 (UACC-257 melanoma) | GI50 (SN12C renal) | GI50 (M14 melanoma) | GI50 (HS 578T breast) | GI50 (PC-3 prostate) | GI50 (NCI-H522 lung)
1 | CN(N=O)c1ccc(/C=C/c2ccnc3ccccc23)cc1 | > 100 µM | > 100 µM | > 100 µM | > 100 µM | > 100 µM | > 100 µM | > 100 µM | > 100 µM | > 100 µM | > 100 µM | – | – | – | – | – | – | – | – | – | –
2 | O=C1c2ccccc2-c2cn(Cc3ccccc3)c3cccc(c23)C1c1cccnc1 (stereo not drawn) | > 50 µM | > 50 µM | > 50 µM | > 50 µM | > 50 µM | > 50 µM | > 50 µM | 45 µM | > 50 µM | 33.4 µM | 18.5 µM | 2.09 µM | 1.97 µM | 4.18 µM | 11.2 µM | 3.08 µM | 3.89 µM | 2.92 µM | 5.94 µM | 2.28 µM
3 | COc1ccc([C@@H]2[C@@H](Cl)C(=O)N2c2cc(OC)c(OC)c(OC)c2)cc1C | 25 µM | > 100 µM | > 100 µM | 42.1 µM | 97.3 µM | 21.9 µM | 17.5 µM | 77.4 µM | > 100 µM | 0.0717 µM | 0.137 µM | 0.0456 µM | 0.0426 µM | 0.163 µM | 15.7 µM | 0.0999 µM | 0.0302 µM | 0.049 µM | 0.0633 µM | 0.0224 µM
4 | COC(=O)[C@]12CC[C@@H](C)[C@H](C)[C@@H]1C1=CC[C@@H]3[C@@]4(C)C[C@@H](OC(C)=O)[C@H](OC(C)=O)[C@@](C)(COC(C)=O)[C@@H]4[C@H](O)C[C@@]3(C)[C@]1(C)CC2 | > 100 µM | > 100 µM | > 100 µM | > 100 µM | 8.21 µM | – | > 100 µM | > 100 µM | > 100 µM | 89 µM | 2.62 µM | 0.356 µM | 3.16 µM | 1.91 µM | 2.43 µM | – | 1.28 µM | 8.15 µM | 0.535 µM | 1.92 µM
5 | COc1oc(C2C/C(=C/C(C)=C/C(C)=C/C(C)=C/c3ccc([N+](=O)[O-])cc3)CO2)c(C)c(=O)c1C (stereo not drawn) | 42.6 µM | 21.3 µM | > 49.6 µM | 38.9 µM | 66 µM | 27 µM | > 100 µM | > 31.6 µM | 18.4 µM | 15.5 µM | – | – | – | – | – | – | – | – | – | –
6 | CSc1ccc(-c2cn3ccsc3n2)cc1 | > 100 µM | > 100 µM | > 100 µM | > 100 µM | > 100 µM | > 100 µM | > 100 µM | > 65.7 µM | > 100 µM | > 89.5 µM | 7.54 µM | 4.85 µM | 26.4 µM | 31.8 µM | 28.7 µM | 32.2 µM | 18.1 µM | 9.5 µM | 18.9 µM | 11.1 µM
7 | NS(=O)(=O)c1cccc(Nc2cc(-c3ccc(F)cc3)[nH]n2)c1 | > 25 µM | > 25 µM | > 25 µM | > 25 µM | > 25 µM | > 25 µM | > 25 µM | > 25 µM | > 25 µM | > 25 µM | 18.6 µM | > 25 µM | > 25 µM | > 25 µM | > 25 µM | > 20.7 µM | > 25 µM | > 20.8 µM | > 23.6 µM | > 25 µM
8 | CCOC(=O)Nc1cc2c(c(N)n1)N=C(c1ccc(Cl)cc1Cl)CN2 | 25.5 µM | 11.9 µM | 18.9 µM | 16.2 µM | 90.6 µM | 28.8 µM | 43.4 µM | 1.41 µM | 14.9 µM | 1.08 µM | – | – | – | – | – | – | – | – | – | –
9 | COc1cc(F)c(F)c(Nc2ccc(I)cc2F)c1NS(=O)(=O)C1(CC(O)CO)CC1 (stereo not drawn) | 55 µM | > 81.7 µM | 57.9 µM | 27.3 µM | 19.5 µM | 38.6 µM | 15.5 µM | 55.4 µM | > 57.5 µM | 29.9 µM | 15.6 µM | 15.7 µM | 18.8 µM | 11 µM | 3.05 µM | 12.5 µM | 3.04 µM | 10.8 µM | 15.1 µM | 11.5 µM
10 | COC(=O)C(=O)C(C(=O)C(=O)Nc1cc(C)ccc1C)c1nc2ccccc2[nH]c1=O (stereo not drawn) | > 100 µM | > 100 µM | > 100 µM | > 100 µM | > 100 µM | > 100 µM | > 100 µM | > 100 µM | > 100 µM | > 100 µM | – | – | – | – | – | – | – | – | – | –
11 | Oc1ccccc1/C=N\NC(=S)Nc1ccc(F)cc1 | > 73.6 µM | > 100 µM | > 37.8 µM | > 100 µM | > 65.3 µM | > 93.7 µM | 3.57 µM | > 100 µM | > 100 µM | > 49.4 µM | 0.95 µM | 0.582 µM | 0.443 µM | 1.74 µM | 2.68 µM | 2.37 µM | 1.01 µM | 5.14 µM | 7.81 µM | 2.16 µM
12 | CC/C(=C/c1ccc(OC)cc1)[N+](=O)[O-] | 10.4 µM | > 100 µM | 11.5 µM | 4.9 µM | 4.56 µM | 5.44 µM | 4.18 µM | 22.2 µM | 3.87 µM | 3.06 µM | 3.01 µM | 1.95 µM | 3.13 µM | 2.31 µM | 2.07 µM | 2.28 µM | 1.85 µM | 3.84 µM | 1.98 µM | 1.56 µM
13 | O=C(CC1(O)C(=O)Nc2ccc(Cl)cc21)c1ccc(C(=O)NCC2CCC3(CC2)OOC2(CCCCC2)OO3)cc1 (stereo not drawn) | 12.9 µM | 4.48 µM | 45.5 µM | 7.72 µM | 24.2 µM | 18.4 µM | 24.6 µM | > 28.2 µM | 5.83 µM | 1.37 µM | 2.94 µM | 1.89 µM | 11.8 µM | 2.68 µM | 6.48 µM | 3.45 µM | 4.41 µM | 3.44 µM | 1.88 µM | 0.292 µM
14 | O=C(NCCN1CCOCC1)c1cc2c(Oc3ccc(NC(=O)C4(C(=O)Nc5ccc(F)cc5)CC4)cc3)ccnc2[nH]1 | > 100 µM | 42.2 µM | > 100 µM | 30.7 µM | 19.5 µM | > 100 µM | > 52.8 µM | > 71.1 µM | 64.6 µM | 28.1 µM | 6.4 µM | 4.27 µM | 22.9 µM | 8.4 µM | 5.14 µM | 1.44 µM | 4.14 µM | 1.32 µM | 5.77 µM | 7.69 µM
15 | C=C(CN1CCN(c2cc(C(F)(F)F)cc(C(F)(F)F)c2)CC1)c1ccc(C(=O)Nc2ccccc2N)cc1 | > 100 µM | > 100 µM | > 100 µM | 17.9 µM | 64.9 µM | 13.4 µM | > 100 µM | 35.6 µM | 31 µM | > 100 µM | 8.12 µM | 1.69 µM | 5.82 µM | 1.06 µM | 6.57 µM | 2.47 µM | 3.76 µM | 4.81 µM | 2.92 µM | 5.21 µM
16 | COc1cccc(/C=C\C(=O)c2ccccc2)c1 | 28.9 µM | > 100 µM | > 100 µM | 36.2 µM | 33.3 µM | 25.5 µM | 28.8 µM | 27.7 µM | 26.2 µM | 4.62 µM | 5.96 µM | 6.27 µM | 17.2 µM | 17.1 µM | 17.7 µM | 8.97 µM | 11.7 µM | 4.15 µM | 3.73 µM | 2.06 µM
17 | COc1cc2c(cc1O)CCN[C@@]21CS[C@H]2c3c(OC(C)=O)c(C)c4c(c3C(COC1=O)N1C2C2NC(Cc3cc(C)c(OC)c(O)c32)[C@@H]1O)OCO4 (stereo partly drawn) | < 10 nM and 4.8e-07 µg/mL and 0.0045 µg/mL | 11.3 µM and 0.0045 µg/mL | 0.0369 µM | < 0.01 µM | 14.7 nM and 2.1e-07 µg/mL | 4.8 ng/mL | < 10 nM and 1.8e-07 µg/mL and 0.0045 µg/mL | 0.302 µM | < 0.01 µM | < 10 nM and 0.0045 µg/mL | 4.5 ng/mL | 4.5 ng/mL | – | – | – | 4.5 ng/mL | 4.5 ng/mL | – | – | 4.5 ng/mL
18 | CC[C@H](C)[C@H](NC(=O)CN(C)C)C(=O)N(C)[C@H](C[C@@H](OC(C)=O)c1nc(C(=O)NC23C4C5C2C2C3C4C52C(=O)OC)cs1)C(C)C (stereo partly drawn) | > 33.2 µM | > 33.2 µM | > 33.2 µM | 4.62 µM | > 33.2 µM | > 18.8 µM | > 33.2 µM | > 33.2 µM | > 33.2 µM | > 10.8 µM | 0.668 µM | 0.138 µM | 11.1 µM | 0.352 µM | 4.31 µM | 0.276 µM | 0.172 µM | 0.176 µM | 0.768 µM | 0.11 µM
19 | COc1ccc(/C(=C(\c2ccccc2)[N+](=O)[O-])c2ccc(OCCN3CCCC3)cc2)cc1 | 20 µM | 6.14 µM | 24.2 µM | 6.98 µM | 4.64 µM | 22.4 µM | 3.47 µM | 10.9 µM | 16.6 µM | 9.62 µM | 5.99 µM | 1.1 µM | 8.41 µM | 2.76 µM | 2.04 µM | 7.79 µM | 1.82 µM | 2.32 µM | 4.53 µM | 2.46 µM
